Legend:
5-HT2A [1] = biological target: T1, 5-HT2A (Homo sapiens, UniProt P28223); test: cell-based; set-up: expressed in transfected cells; host or cells: HEK293T, transient; details: for Emax: read-out: 5-HT2A β-arrestin Emax (% 5-HT), BRET, mean ± SEM
5-HT2A [2] = biological target: T1, 5-HT2A; test: [3H]-ketanserin displacement, 5-HT2A membranes; type: binding; set-up: ES-313-M400UA (membranes); host or cells: CHO-K1; details: [3H]-ketanserin displacement (n = 2); read-out: 5-HT2A pKi Mean ± SEM (converted)
5-HT2A [3] = biological target: T1, 5-HT2A; test: cell-based; set-up: expressed in transfected cells; host or cells: HEK293T, transient; details: for Emax: read-out: 5-HT2A Gq Emax (% 5-HT), BRET, mean ± SEM
5-HT2B [4] = biological target: T2, 5-HT2B (Homo sapiens, UniProt P41595); test: Ca2+ flux assay, 5-HT2B; type: cell-based; set-up: expressed in transfected cells; details: Ca2+ flux
T2 sequence (P41595 whole entry): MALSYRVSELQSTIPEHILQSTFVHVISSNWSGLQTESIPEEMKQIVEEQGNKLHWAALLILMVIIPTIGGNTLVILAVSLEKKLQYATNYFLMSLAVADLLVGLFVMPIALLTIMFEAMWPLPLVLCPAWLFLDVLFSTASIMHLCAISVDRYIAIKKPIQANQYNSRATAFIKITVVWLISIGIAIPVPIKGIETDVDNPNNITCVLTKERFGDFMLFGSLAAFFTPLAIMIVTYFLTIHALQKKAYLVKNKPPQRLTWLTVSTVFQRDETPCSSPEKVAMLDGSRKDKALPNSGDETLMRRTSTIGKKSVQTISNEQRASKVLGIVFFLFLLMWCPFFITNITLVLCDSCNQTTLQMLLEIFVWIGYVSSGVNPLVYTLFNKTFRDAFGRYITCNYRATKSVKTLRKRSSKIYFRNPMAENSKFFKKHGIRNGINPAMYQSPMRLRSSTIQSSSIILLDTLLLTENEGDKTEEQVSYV

5-HT2A [5] = test: Ca2+ flux assay, 5-HT2A; type: cell-based, human; details: Gq/11 Ca2+ mobilization; higher number = skewed towards 5-HT2A
5-HT2C [6] = biological target: T3, 5-HT2C (Homo sapiens, UniProt P28335); test: Ca2+ flux assay, 5-HT2C; type: cell-based; set-up: expressed in transfected cells
T3 sequence (P28335 33-458): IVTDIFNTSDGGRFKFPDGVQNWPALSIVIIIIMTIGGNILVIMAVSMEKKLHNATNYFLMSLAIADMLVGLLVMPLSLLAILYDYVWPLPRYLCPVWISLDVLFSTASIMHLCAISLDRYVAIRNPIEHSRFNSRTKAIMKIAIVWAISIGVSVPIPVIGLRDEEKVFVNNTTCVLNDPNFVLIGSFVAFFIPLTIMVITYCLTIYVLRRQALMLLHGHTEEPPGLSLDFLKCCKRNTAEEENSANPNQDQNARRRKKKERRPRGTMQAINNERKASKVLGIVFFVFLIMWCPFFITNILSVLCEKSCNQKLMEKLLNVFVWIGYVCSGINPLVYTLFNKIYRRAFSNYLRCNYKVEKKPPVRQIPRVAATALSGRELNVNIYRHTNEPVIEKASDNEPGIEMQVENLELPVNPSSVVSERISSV

5-HT2C [7] = biological target: T3, 5-HT2C; test: Competitive radioligand binding (NIMH PDSP); set-up: expressed in transfected cells
Procedure: (§1) Method 1: Competitive binding experiments were performed by the National Institute of Mental Health Psychoactive Drug Screening Program (NIMH PDSP) using described methods or 5-HT2A experiments performed using [3H]-ketanserin displacement in human 5-HT2A expressing membranes. Target compounds were dissolved in DMSO and an initial screen performed to assess displacement of the radioligand from target receptors at a concentration of 10,000 nM. […] For the Ki experiments, compounds were always tested in triplicate on separate plates. Each plate also contained a known ligand for the receptor as a positive control.

5-HT2B [8] = biological target: T2, 5-HT2B; test: Competitive radioligand binding (NIMH PDSP); set-up: expressed in transfected cells
Procedure: as §1

5-HT2A [9] = biological target: T1, 5-HT2A; test: Ca2+ flux assay, 5-HT2A; type: cell-based; set-up: expressed in transfected cells
5-HT7 = 5-HT7 (Homo sapiens, UniProt P34969); test: Competitive radioligand binding (NIMH PDSP)
Sequence of 5-HT7 (P34969 whole entry, species assumed): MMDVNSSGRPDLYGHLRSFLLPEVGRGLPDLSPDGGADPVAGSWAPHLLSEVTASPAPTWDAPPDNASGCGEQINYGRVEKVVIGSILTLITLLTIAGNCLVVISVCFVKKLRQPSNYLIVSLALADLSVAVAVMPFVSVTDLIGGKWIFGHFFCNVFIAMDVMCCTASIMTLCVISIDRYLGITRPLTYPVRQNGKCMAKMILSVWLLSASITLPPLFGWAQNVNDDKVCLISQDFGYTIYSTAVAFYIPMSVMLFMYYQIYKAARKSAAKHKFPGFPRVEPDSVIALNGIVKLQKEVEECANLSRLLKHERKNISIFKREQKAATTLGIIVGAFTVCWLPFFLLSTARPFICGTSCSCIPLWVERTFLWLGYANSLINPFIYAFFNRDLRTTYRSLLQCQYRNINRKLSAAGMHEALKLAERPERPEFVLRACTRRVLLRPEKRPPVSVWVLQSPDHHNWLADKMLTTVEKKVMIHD
Procedure: as §1

5-HT6 = 5-HT6 (Homo sapiens, UniProt P50406); test: Competitive radioligand binding (NIMH PDSP)
Sequence of 5-HT6 (P50406 whole entry, species assumed): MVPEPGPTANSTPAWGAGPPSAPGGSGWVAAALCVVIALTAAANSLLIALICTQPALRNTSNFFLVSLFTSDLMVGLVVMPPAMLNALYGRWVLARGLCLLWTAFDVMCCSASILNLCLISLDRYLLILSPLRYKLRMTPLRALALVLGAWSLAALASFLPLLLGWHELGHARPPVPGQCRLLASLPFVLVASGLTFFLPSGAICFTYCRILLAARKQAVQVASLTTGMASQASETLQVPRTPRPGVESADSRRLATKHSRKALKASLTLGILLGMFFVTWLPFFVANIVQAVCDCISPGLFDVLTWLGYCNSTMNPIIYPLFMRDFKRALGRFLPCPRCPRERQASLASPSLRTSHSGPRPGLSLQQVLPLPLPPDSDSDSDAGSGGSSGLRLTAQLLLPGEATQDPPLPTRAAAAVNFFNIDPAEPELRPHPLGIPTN
Procedure: as §1

5-HT5a = 5-HT5a (Homo sapiens, UniProt P47898); test: Competitive radioligand binding (NIMH PDSP)
Sequence of 5-HT5a (P47898 whole entry, species assumed): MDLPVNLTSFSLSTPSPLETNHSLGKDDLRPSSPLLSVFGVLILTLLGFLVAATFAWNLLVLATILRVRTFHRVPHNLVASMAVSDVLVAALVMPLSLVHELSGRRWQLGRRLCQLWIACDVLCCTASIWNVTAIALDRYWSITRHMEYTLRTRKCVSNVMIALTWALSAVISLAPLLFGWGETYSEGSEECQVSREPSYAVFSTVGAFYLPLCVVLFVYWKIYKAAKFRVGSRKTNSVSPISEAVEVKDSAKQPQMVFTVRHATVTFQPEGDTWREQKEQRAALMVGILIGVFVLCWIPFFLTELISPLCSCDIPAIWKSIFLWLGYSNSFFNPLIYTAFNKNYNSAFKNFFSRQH
Procedure: as §1

5-HT1B = 5-HT1B (Homo sapiens, UniProt P28222); test: Competitive radioligand binding (NIMH PDSP)
Sequence of 5-HT1B (P28222 whole entry, species assumed): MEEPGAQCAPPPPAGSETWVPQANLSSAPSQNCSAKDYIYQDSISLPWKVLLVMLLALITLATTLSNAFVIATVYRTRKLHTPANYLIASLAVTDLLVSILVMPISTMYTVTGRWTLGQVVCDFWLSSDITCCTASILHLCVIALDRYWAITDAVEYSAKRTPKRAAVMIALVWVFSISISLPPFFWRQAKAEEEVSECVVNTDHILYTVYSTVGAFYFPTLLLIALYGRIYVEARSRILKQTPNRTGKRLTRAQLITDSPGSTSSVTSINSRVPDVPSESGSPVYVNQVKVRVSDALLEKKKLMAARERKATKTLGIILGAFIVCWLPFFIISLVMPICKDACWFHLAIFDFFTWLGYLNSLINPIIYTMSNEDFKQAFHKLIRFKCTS
Procedure: as §1

5-HT3 = biological target: T4, 5-HT3 (Homo sapiens, UniProt P46098); test: Competitive radioligand binding (NIMH PDSP)
T4 sequence (P46098 24-478): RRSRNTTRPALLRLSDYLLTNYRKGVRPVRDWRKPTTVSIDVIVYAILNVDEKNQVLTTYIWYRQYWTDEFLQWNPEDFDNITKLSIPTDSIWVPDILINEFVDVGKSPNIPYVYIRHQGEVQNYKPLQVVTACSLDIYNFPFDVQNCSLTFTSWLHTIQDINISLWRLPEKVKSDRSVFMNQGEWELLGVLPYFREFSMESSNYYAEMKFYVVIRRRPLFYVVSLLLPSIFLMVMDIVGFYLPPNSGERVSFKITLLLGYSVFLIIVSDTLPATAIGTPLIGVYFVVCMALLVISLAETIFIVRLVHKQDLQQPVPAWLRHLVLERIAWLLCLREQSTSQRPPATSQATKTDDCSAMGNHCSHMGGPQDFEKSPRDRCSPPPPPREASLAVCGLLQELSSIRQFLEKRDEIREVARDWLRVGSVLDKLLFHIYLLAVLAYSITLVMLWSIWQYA
Procedure: as §1

5-HT1A = biological target: T5, 5-HT1A (Homo sapiens, UniProt P08908); test: Competitive radioligand binding (NIMH PDSP)
T5 sequence (P08908 1-422): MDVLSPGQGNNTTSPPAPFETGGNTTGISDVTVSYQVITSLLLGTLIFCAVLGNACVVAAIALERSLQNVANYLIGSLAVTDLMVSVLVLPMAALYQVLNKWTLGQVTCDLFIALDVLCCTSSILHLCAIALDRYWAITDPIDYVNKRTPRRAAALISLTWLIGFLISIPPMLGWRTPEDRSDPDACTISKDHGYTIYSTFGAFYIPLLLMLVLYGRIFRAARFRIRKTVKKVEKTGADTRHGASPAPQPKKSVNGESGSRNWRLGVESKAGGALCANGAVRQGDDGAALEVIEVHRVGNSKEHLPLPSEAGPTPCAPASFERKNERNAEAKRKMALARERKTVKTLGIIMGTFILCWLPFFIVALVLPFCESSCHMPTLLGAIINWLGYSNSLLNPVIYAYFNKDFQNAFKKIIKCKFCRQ
Procedure: as §1

5-HT1D = 5-HT1D (Homo sapiens, UniProt P28221); test: Competitive radioligand binding (NIMH PDSP)
Sequence of 5-HT1D (P28221 whole entry, species assumed): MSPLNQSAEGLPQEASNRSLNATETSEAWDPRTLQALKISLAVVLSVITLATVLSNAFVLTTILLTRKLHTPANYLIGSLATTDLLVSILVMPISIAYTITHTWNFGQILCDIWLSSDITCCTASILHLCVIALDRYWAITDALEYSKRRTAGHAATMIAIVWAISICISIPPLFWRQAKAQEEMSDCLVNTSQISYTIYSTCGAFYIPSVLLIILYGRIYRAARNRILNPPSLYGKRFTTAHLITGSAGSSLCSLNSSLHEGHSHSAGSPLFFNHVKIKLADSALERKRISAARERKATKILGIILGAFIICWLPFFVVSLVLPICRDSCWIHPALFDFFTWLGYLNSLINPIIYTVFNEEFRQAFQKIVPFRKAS
Procedure: as §1

5-HT1e = 5-HT1e (Homo sapiens, UniProt P28566); test: Competitive radioligand binding (NIMH PDSP)
Sequence of 5-HT1e (P28566 whole entry, species assumed): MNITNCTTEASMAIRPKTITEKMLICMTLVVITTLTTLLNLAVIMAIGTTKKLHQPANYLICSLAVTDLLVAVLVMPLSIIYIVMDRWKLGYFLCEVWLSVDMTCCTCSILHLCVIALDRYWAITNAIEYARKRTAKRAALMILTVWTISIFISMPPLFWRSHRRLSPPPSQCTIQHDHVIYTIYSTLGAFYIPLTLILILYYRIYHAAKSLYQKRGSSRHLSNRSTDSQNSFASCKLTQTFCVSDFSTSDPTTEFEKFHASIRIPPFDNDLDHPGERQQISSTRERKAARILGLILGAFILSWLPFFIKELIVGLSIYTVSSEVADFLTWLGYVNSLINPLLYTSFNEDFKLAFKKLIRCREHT
Procedure: as §1

5-HT2A [10] = biological target: T1, 5-HT2A; test: Competitive radioligand binding (NIMH PDSP)
Procedure: as §1

mice = test: PCP-induced locomotor hyperactivity; type: in vivo, mouse; details: PCP 5 mg/kg IP, 25N-N1-Nap 3 mg/kg SC, M100907 0.03 mg/kg SC
Procedure: (A). DOI, a hallucinogen and 5-HT2A agonist, was administered IP 10 min after SC administration of vehicle or test drug. A and then HTR activity was assessed for 30 minutes. *p<0.001, significant difference vs. vehicle (B). Vehicle or the NMDA receptor antagonist PCP (5 mg/kg) was injected IP 10 min after SC administration of vehicle or 25N-NB1-Nap (16), and then the mice were placed in the test chambers 10 min later for a 60-min assessment of locomotor activity. (C). […] Mice were treated with vehicle or M100907 (0.03 mg/kg SC) 10 min prior to vehicle or PCP (5 mg/kg IP): animals were placed in the test chambers 10 min after treatment with PCP. Animals were tested for 60 min. *p<0.01 vs. vehicle: ^#p<0.01 vs. PCP alone.
Male C57BL/6J mice (6-8 weeks old) from Jackson Labs (Bar Harbor, ME, USA) were used for the behavioral experiments. The mice were housed on a reversed light-dark cycle (lights on at 1900 h, off at 0700 h) in an AAAC-approved vivarium at the University of California San Diego. Mice were housed up to four per cage in a climate-controlled room and with food and water provided ad libitum except during behavioral testing. Testing was performed between 1000 and 1800 h (during the dark phase of the light-dark cycle). The studies were conducted in accordance with National Institutes Health (NIH) guidelines and were approved by the University of California San Diego Institutional Animal Care and Use Committee.
Edelfosine, DOI, R—(−)-DOI, and PCP were injected IP (5 mL/kg): 25N—NB and its derivatives were injected SC (5 mL/kg or 10 mL/kg): YM-254,890 was injected into the lateral ventricle (2 μL) over 1 min.
The mouse behavioral pattern monitor (BPM) was used to assess locomotor activity. Each mouse BPM chamber (San Diego Instruments, San Diego, CA, USA) is a transparent Plexiglas box with an opaque 30×60 cm floor, enclosed in a ventilated isolation box. The position of the mouse in x.y coordinates is recorded by a grid of 12×24 infrared photobeams located 1 cm above the floor. A second row of 16 photobeams (parallel to the long axis of the chamber, located 2.5 cm above the floor) is used to detect rearing behavior. Holepoking behavior is detected by 11 1.4-cm holes that are situated in the walls (3 holes in each long wall, 2 holes in each short wall) and the floor ([…]); each hole is equipped with an infrared photobeam. The status of each photobeam is sampled every 55 ms and recorded for offline analysis. Locomotor activity was quantified as distance traveled, which was analyzed in 20-min blocks using a three-way ANOVA, with pretreatment and treatment as between subject variables and time as a within-subject variable. Tukey's studentized range method was used for post hoc comparisons.

[11] = BRET, mean ± SEM, read-out: 5-HT2A β-arrestin recruitment pEC50 (converted)
[12] = BRET, mean ± SEM, read-out: 5-HT2A Gq dissociation pEC50 (converted)

T1 sequence (P28223 whole entry): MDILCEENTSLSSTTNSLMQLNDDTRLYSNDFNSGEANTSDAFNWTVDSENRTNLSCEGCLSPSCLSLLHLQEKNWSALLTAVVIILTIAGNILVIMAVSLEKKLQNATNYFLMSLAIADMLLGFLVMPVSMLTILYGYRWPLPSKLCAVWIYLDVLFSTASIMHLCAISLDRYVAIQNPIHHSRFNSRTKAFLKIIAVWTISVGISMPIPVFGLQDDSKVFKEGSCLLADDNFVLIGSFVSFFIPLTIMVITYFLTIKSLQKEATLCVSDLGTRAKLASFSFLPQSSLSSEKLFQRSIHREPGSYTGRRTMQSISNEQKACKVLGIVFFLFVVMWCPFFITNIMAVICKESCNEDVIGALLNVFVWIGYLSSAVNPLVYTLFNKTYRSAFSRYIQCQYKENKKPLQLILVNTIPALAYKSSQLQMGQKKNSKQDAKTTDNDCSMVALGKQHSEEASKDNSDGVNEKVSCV

SMILES | EC50 (5-HT2A [1]; [11]) | Emax (5-HT2A [1]) | Ki (5-HT2A [2]) | EC50 (5-HT2A [3]; [12]) | Emax (5-HT2A [3]) | other results
COc1cc(OC)c(OC)cc1CCNCc1cccc(C)c1O [(68)] | 1.41 nM | 89.1 ± 2.3% | 30.9 nM | 3.24 nM | 63.4 ± 0.8% | –
COc1ccc(OC)c(CNCCc2cc(OC)c([N+](=O)[O-])cc2OC)c1 [25N-NB-2,5-DiMeO (20)] | – | – | – | – | – | 5-HT2B EC50, nM (5-HT2B [4]): No activity; Emax (5-HT2B [4]; read-out: 5-HT2B Emax % 5-HT): < 10%; 5-HT2A/5-HT2c Selectivity Factor ΔLog(Emax/EC50) (5-HT2A [5]): 5-HT2A Selective; 5-HT2C EC50, nM (5-HT2C [6]): No activity; Emax (5-HT2C [6]; read-out: 5-HT2C Emax % 5-HT): < 10%; Ki (5-HT2C [7]): 145 nM; Ki (5-HT2B [8]): 135 nM; EC50 (5-HT2A [9]; 5-HT2A EC50, nM, Ca2+ flux): 133 nM; Emax (5-HT2A [9]; read-out: 5-HT2A Emax % 5-HT, Ca2+ flux): 72 ± 1%; Ki (5-HT7): > 10000 nM; Ki (5-HT6): > 10000 nM; Ki (5-HT5a): > 10000 nM; Ki (5-HT1B): > 10000 nM; Ki (5-HT3): > 10000 nM; Ki (5-HT1A): 513 nM; Ki (5-HT1D): > 10000 nM; Ki (5-HT1e): > 10000 nM; Ki (5-HT2A [10]): 229 nM
COc1cc(OC)c(OC)cc1CCNCc1ccccc1C1CC1 [(70)] | 6.92 nM | 116 ± 4.4% | 70.8 nM | 3.63 nM | 97.5 ± 1.5% | –
COc1cc(OC)c(OC)cc1CCNCc1cccc(I)c1F [(72)] | 7.08 nM | 63.5 ± 3.2% | 49 nM | 33.9 nM | 60.7 ± 1.7% | –
COc1cc(OC)c(OC)cc1CCNCc1c[nH]nc1-c1ccccc1 [(80)] | 79.4 nM | 102 ± 3.7% | 302 nM | – | 31.8 ± 2.3% | EC50 (5-HT2A [3]): 537 nM
COc1cc(OC)c(OC)cc1CCNCc1cccc2c1oc1ccccc12 [(74), N-(dibenzo-[b, d]-furan-4-ylmethyl)-2-(2,4,5-trimethoxyphenyl)-ethan-1-amine] | 16.2 nM | 68.3 ± 3.4% | 67.6 nM | 81.3 nM | 40.2 ± 1.9% | –
COc1cc(OC)c(OC)cc1CCNCc1cccc(OCc2ccccc2)c1 [(78)] | – | 50.3 ± 4.1% | 251 nM | – | 32.8 ± 4.5% | –
COc1cc(OC)c(OC)cc1CCNCc1ccc(-c2ccccc2)o1 [(75)] | – | 50.3 ± 4.7% | 309 nM | – | < 10% | EC50 (5-HT2A [1]): 891 nM; 5-HT2A Gq dissociation pEC50 (5-HT2A [3]; BRET, mean ± SEM): No activity
COc1cccc(COc2ccccc2CNCCc2cc(OC)c(OC)cc2OC)c1 [(79)] | – | 33 ± 4.8% | 158 nM | – | < 10% | EC50 (5-HT2A [1]): 1120 nM; 5-HT2A Gq dissociation pEC50 (5-HT2A [3]; BRET, mean ± SEM): No activity
COc1cc(OC)c(OC)cc1CCNCc1ccc(-c2ccccc2)s1 [(76), N-((5-phenylthiophen-2-yl)methyl)-2-(2,4,5-trimethoxyphenyl)-ethan-1-amine] | 91.2 nM | 78 ± 4% | 447 nM | – | 57.4 ± 4.6% | EC50 (5-HT2A [3]): 1070 nM
COc1cc(OC)c(OC)cc1CCNCc1cccc(C(C)(C)C)c1 [(71)] | 1620 nM | 60.4 ± 5.2% | 380 nM | 1620 nM | 38.6 ± 5% | –
COc1cc(OC)c(OC)cc1CCNCc1ccc(-c2cccs2)s1 [(77)] | – | 82.5 ± 4.2% | 324 nM | – | 49 ± 5.1% | –
COc1cccc([C@H](O)C2CCN(CCc3ccc(F)cc3)CC2)c1OC [Compound M100907, reference compound] | – | – | – | – | – | Effect on PCP-induced locomotor hyperactivity (mice): blocks PCP induced hyperactivity; Effect on PCP-induced locomotor hyperactivity (mice; listed as M100,907): blocked
COc1cc(OC)c(OC)cc1CCNCc1ccc(F)c2ccccc12 [(67)] | 10.2 nM | 73.6 ± 3.2% | 50.1 nM | 22.9 nM | 41 ± 1.3% | –

Reference: US20240254087A1, “SELECTIVE, PARTIAL, AND ARRESTIN-BIASED 5-HT2A AGONISTS WITH UTILITY IN VARIOUS DISORDERS” (Saint Joseph's University, priority 2021, published 2024)
